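All cell lines were grown in 96-well plates and treated with compound for 48 hours. TGI is the concentration that stops growth completely.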
Key:
Experiment in all cases: inhibition of tumour cell growth, NCI panel, 48 h
786-0 renal = system: 786-0 renal
A498 renal = system: A498 renal
A549 NSCLC = system: A549 NSCLC
ACHN renal = system: ACHN renal
BT-549 breast = system: BT-549 breast
CAKI-1 renal = system: CAKI-1 renal
COLO 205 colon = system: COLO 205 colon
DU-145 prostate = system: DU-145 prostate
EKVX NSCLC = system: EKVX NSCLC
HCT-116 colon = system: HCT-116 colon
HCT-15 colon = system: HCT-15 colon
HL-60(TB) leukemia = system: HL-60(TB) leukemia
HOP-62 NSCLC = system: HOP-62 NSCLC
HOP-92 NSCLC = system: HOP-92 NSCLC
HS 578T breast = system: HS 578T breast
HT29 colon = system: HT29 colon
IGROV1 ovarian = system: IGROV1 ovarian
K-562 leukemia = system: K-562 leukemia
KM12 colon = system: KM12 colon
LOX IMVI melanoma = system: LOX IMVI melanoma
M14 melanoma = system: M14 melanoma
MALME-3M melanoma = system: MALME-3M melanoma
MDA-MB-231 breast = system: MDA-MB-231 breast
MDA-MB-435 = system: MDA-MB-435
MDA-N = system: MDA-N
MOLT-4 leukemia = system: MOLT-4 leukemia
NCI-H226 lung = system: NCI-H226 lung
NCI-H23 lung = system: NCI-H23 lung
NCI-H460 lung = system: NCI-H460 lung
NCI-H522 lung = system: NCI-H522 lung
NCI/ADR-RES ovarian = system: NCI/ADR-RES ovarian
OVCAR-3 ovarian = system: OVCAR-3 ovarian
OVCAR-4 ovarian = system: OVCAR-4 ovarian
OVCAR-5 ovarian = system: OVCAR-5 ovarian
OVCAR-8 ovarian = system: OVCAR-8 ovarian
PC-3 prostate = system: PC-3 prostate
RPMI-8226 leukemia = system: RPMI-8226 leukemia
RXF 393 renal = system: RXF 393 renal
SF-268 CNS = system: SF-268 CNS
SF-295 CNS = system: SF-295 CNS
SF-539 CNS = system: SF-539 CNS
SK-MEL-2 melanoma = system: SK-MEL-2 melanoma
SK-MEL-28 melanoma = system: SK-MEL-28 melanoma
SK-MEL-5 melanoma = system: SK-MEL-5 melanoma
SK-OV-3 ovarian = system: SK-OV-3 ovarian
SN12C renal = system: SN12C renal
SNB-19 CNS = system: SNB-19 CNS
SNB-75 CNS = system: SNB-75 CNS
SR leukemia = system: SR leukemia
SW-620 colon = system: SW-620 colon
T-47D breast = system: T-47D breast
TK-10 renal = system: TK-10 renal
U251 CNS = system: U251 CNS
UACC-257 melanoma = system: UACC-257 melanoma
UACC-62 melanoma = system: UACC-62 melanoma
UO-31 renal = system: UO-31 renal
CCRF-CEM leukemia = system: CCRF-CEM leukemia
HCC-2998 colon = system: HCC-2998 colon
MCF7 breast = system: MCF7 breast

SMILES: Nc1ncnc2c1ncn2C1OC(CO)C(O)C1N (centres undefined)
- TGI (786-0 renal): > 100 µM
- TGI (A498 renal): > 100 µM
- TGI (A549 NSCLC): > 100 µM
- TGI (ACHN renal): > 100 µM
- TGI (BT-549 breast): > 100 µM
- TGI (CAKI-1 renal): > 100 µM
- TGI (COLO 205 colon): > 100 µM
- TGI (DU-145 prostate): > 100 µM
- TGI (EKVX NSCLC): > 100 µM
- TGI (HCT-116 colon): > 100 µM
- TGI (HCT-15 colon): > 100 µM
- TGI (HL-60(TB) leukemia): > 100 µM
- TGI (HOP-62 NSCLC): > 100 µM
- TGI (HOP-92 NSCLC): > 100 µM
- TGI (HS 578T breast): > 100 µM
- TGI (HT29 colon): > 100 µM
- TGI (IGROV1 ovarian): > 100 µM
- TGI (K-562 leukemia): > 100 µM
- TGI (KM12 colon): > 100 µM
- TGI (LOX IMVI melanoma): > 100 µM
- TGI (M14 melanoma): > 100 µM
- TGI (MALME-3M melanoma): > 100 µM
- TGI (MDA-MB-231 breast): > 100 µM
- TGI (MDA-MB-435): > 100 µM
- TGI (MDA-N): > 100 µM
- TGI (MOLT-4 leukemia): > 100 µM
- TGI (NCI-H226 lung): > 100 µM
- TGI (NCI-H23 lung): > 100 µM
- TGI (NCI-H460 lung): > 100 µM
- TGI (NCI-H522 lung): > 100 µM
- TGI (NCI/ADR-RES ovarian): > 100 µM
- TGI (OVCAR-3 ovarian): > 100 µM
- TGI (OVCAR-4 ovarian): > 100 µM
- TGI (OVCAR-5 ovarian): > 100 µM
- TGI (OVCAR-8 ovarian): > 100 µM
- TGI (PC-3 prostate): > 100 µM
- TGI (RPMI-8226 leukemia): > 100 µM
- TGI (RXF 393 renal): > 100 µM
- TGI (SF-268 CNS): > 100 µM
- TGI (SF-295 CNS): > 100 µM
- TGI (SF-539 CNS): > 100 µM
- TGI (SK-MEL-2 melanoma): > 100 µM
- TGI (SK-MEL-28 melanoma): > 100 µM
- TGI (SK-MEL-5 melanoma): > 100 µM
- TGI (SK-OV-3 ovarian): > 100 µM
- TGI (SN12C renal): > 100 µM
- TGI (SNB-19 CNS): > 100 µM
- TGI (SNB-75 CNS): > 100 µM
- TGI (SR leukemia): > 100 µM
- TGI (SW-620 colon): > 100 µM
- TGI (T-47D breast): > 100 µM
- TGI (TK-10 renal): > 100 µM
- TGI (U251 CNS): > 100 µM
- TGI (UACC-257 melanoma): > 100 µM
- TGI (UACC-62 melanoma): > 100 µM
- TGI (UO-31 renal): > 100 µM

SMILES: c1cnc(N2CCN(Cc3c[nH]c4ccccc34)CC2)nc1
- TGI (786-0 renal): 31.9 µM
- TGI (A498 renal): > 100 µM
- TGI (A549 NSCLC): > 100 µM
- TGI (ACHN renal): > 100 µM
- TGI (BT-549 breast): > 100 µM
- TGI (CAKI-1 renal): > 100 µM
- TGI (CCRF-CEM leukemia): > 100 µM
- TGI (COLO 205 colon): 67.6 µM
- TGI (DU-145 prostate): 94.2 µM
- TGI (EKVX NSCLC): > 100 µM
- TGI (HCC-2998 colon): 38.9 µM
- TGI (HCT-116 colon): > 100 µM
- TGI (HCT-15 colon): > 100 µM
- TGI (HL-60(TB) leukemia): > 100 µM
- TGI (HOP-62 NSCLC): > 100 µM
- TGI (HOP-92 NSCLC): > 100 µM
- TGI (HS 578T breast): > 100 µM
- TGI (HT29 colon): > 100 µM
- TGI (IGROV1 ovarian): > 100 µM
- TGI (K-562 leukemia): > 100 µM
- TGI (KM12 colon): 76.6 µM
- TGI (LOX IMVI melanoma): > 100 µM
- TGI (M14 melanoma): > 100 µM
- TGI (MALME-3M melanoma): > 100 µM
- TGI (MCF7 breast): 53.7 µM
- TGI (MDA-MB-231 breast): > 100 µM
- TGI (MDA-MB-435): > 100 µM
- TGI (MDA-N): > 100 µM
- TGI (MOLT-4 leukemia): > 100 µM
- TGI (NCI-H226 lung): > 100 µM
- TGI (NCI-H23 lung): > 100 µM
- TGI (NCI-H460 lung): > 100 µM
- TGI (NCI-H522 lung): > 100 µM
- TGI (NCI/ADR-RES ovarian): > 100 µM
- TGI (OVCAR-3 ovarian): > 100 µM
- TGI (OVCAR-4 ovarian): > 100 µM
- TGI (OVCAR-5 ovarian): > 100 µM
- TGI (OVCAR-8 ovarian): > 100 µM
- TGI (PC-3 prostate): > 100 µM
- TGI (RPMI-8226 leukemia): 63.7 µM
- TGI (RXF 393 renal): > 100 µM
- TGI (SF-268 CNS): > 100 µM
- TGI (SF-295 CNS): > 100 µM
- TGI (SF-539 CNS): 67 µM
- TGI (SK-MEL-2 melanoma): 31.4 µM
- TGI (SK-MEL-28 melanoma): > 100 µM
- TGI (SK-MEL-5 melanoma): > 100 µM
- TGI (SK-OV-3 ovarian): > 100 µM
- TGI (SN12C renal): > 100 µM
- TGI (SNB-19 CNS): > 100 µM
- TGI (SNB-75 CNS): > 100 µM
- TGI (SW-620 colon): > 100 µM
- TGI (T-47D breast): 72.2 µM
- TGI (TK-10 renal): > 100 µM
- TGI (U251 CNS): > 100 µM
- TGI (UACC-257 melanoma): > 100 µM
- TGI (UACC-62 melanoma): > 100 µM
- TGI (UO-31 renal): > 100 µM

— PubChem BioAssay (NCI)
